pIC50: −log10 of the molar value. Where a name gives a salt, the structure may show the parent alone. Where only a bound is given, the exact number is not on record here.

The assay deals with T1, recombinant human arginase 1 (Homo sapiens, UniProt P05089).
T1 sequence (P05089 1-322): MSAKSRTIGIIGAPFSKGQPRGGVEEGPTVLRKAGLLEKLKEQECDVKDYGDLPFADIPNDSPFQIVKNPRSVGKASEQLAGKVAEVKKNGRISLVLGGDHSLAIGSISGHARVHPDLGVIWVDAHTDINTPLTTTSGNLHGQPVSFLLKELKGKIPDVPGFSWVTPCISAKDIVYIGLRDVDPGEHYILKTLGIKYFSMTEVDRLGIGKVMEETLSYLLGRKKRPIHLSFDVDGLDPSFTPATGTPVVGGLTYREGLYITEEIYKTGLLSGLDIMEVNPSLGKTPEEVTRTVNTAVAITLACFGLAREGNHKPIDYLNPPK
Briefly: Arginase inhibitory activity test, enzymatic assay based on urea measurement (Arg 1).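 Also: enzyme incubated with L-arginine substrate and compound at 37 °C for 120 min, urea product detected colorimetrically by absorbance at 450 nm, background from wells lacking enzyme.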
Take `CNS(=O)(=O)N1C[C@H](CCCB(O)O)[C@](N)(C(=O)O)C1` (racemic) [Example 2, (rac)trans-3-amino-4-(3-boronopropyl)-1-(N-methylsulfamoyl)pyrrolidine-3-carboxylic acid, (1:1) 2,2,2-trifluoroacetic acid salt]: the pIC50 was 5.00 to 6.00. The result for `NC(=O)CNS(=O)(=O)N1C[C@H](CCCB(O)O)[C@](N)(C(=O)O)C1` (racemic) [Example 7, (rac)trans-3-amino-1-(N-(2-amino-2-oxoethyl)sulfamoyl)-4-(3-boronopropyl)pyrrolidine-3-carboxylic acid, (1:1) 2,2,2-trifluoroacetic acid salt] reads 5.00 to 6.00; that for `NCC(=O)NS(=O)(=O)N1C[C@H](CCCB(O)O)[C@](N)(C(=O)O)C1` (racemic) [Example 8, (rac)trans-3-amino-4-(3-boronopropyl)-1-(N-glycylsulfamoyl)pyrrolidine-3-carboxylic acid, (1:2) 2,2,2-trifluoroacetic acid salt], 6.00 to 7.00. Turning to `CC(C)(O)CNS(=O)(=O)N1C[C@H](CCCB(O)O)[C@](N)(C(=O)O)C1` (racemic) [Example 9, (rac)trans-3-amino-4-(3-boronopropyl)-1-(N-(2-hydroxy-2-methylpropyl)sulfamoyl)pyrrolidine-3-carboxylic acid, (1:1) 2,2,2-trifluoroacetic acid salt], the negative-log IC50 (pIC50) was 6.00 to 7.00. `N[C@@]1(C(=O)O)CN(S(=O)(=O)NCCO)C[C@@H]1CCCB(O)O` (racemic) [Example 10, (rac)trans-3-amino-4-(3-boronopropyl)-1-(N-(2-hydroxyethyl)sulfamoyl)pyrrolidine-3-carboxylic acid (1:1), 2,2,2-trifluoroacetic acid salt]: the pIC50 was 6.00 to 7.00.

Regarding `CC(C)C(NS(=O)(=O)N1CC(CCCB(O)O)C(N)(C(=O)O)C1)C(=O)O` (racemic) [Example 11, (rac)trans-3-amino-4-(3-boronopropyl)-1-(N-((S)-1-carboxy-2-methylpropyl)sulfamoyl)pyrrolidine-3-carboxylic acid (diastereomer), (1:1) 2,2,2-trifluoroacetic acid salt], the pIC50 is 5.00 to 6.00.

For `NCC1(NS(=O)(=O)N2C[C@H](CCCB(O)O)[C@](N)(C(=O)O)C2)CC1` (racemic) [Example 12, (rac)trans-3-amino-1-(N-(1-(aminomethyl)cyclopropyl)sulfamoyl)-4-(3-boronopropyl)pyrrolidine-3-carboxylic acid, (1:2) 2,2,2-trifluoroacetic acid salt], the pIC50 is above 7.00. The result for `Nc1ccccc1NS(=O)(=O)N1C[C@H](CCCB(O)O)[C@](N)(C(=O)O)C1` (racemic) [Example 13, (rac)trans-3-amino-1-(N-(2-aminophenyl)sulfamoyl)-4-(3-boronopropyl)pyrrolidine-3-carboxylic acid, (1:2) 2,2,2-trifluoroacetic acid salt] reads 6.00 to 7.00; that for `N[C@@H]1C[C@H]1NS(=O)(=O)N1C[C@H](CCCB(O)O)[C@](N)(C(=O)O)C1` (racemic) [Example 15, (3R,4S)-3-amino-1-(N-((rac)trans-2-aminocyclopropyl)sulfamoyl)-4-(3-boronopropyl)pyrrolidine-3-carboxylic acid (diastereomers), (1:2) 2,2,2-trifluoroacetic acid salt], above 7.00. The result for `C[C@H](CN)NS(=O)(=O)N1C[C@H](CCCB(O)O)[C@](N)(C(=O)O)C1` (racemic) [Example 16, (rac)trans-3-amino-1-(N-((R)-1-aminopropan-2-yl)sulfamoyl)-4-(3-boronopropyl)pyrrolidine-3-carboxylic acid (diastereomers), 2,2,2-trifluoroacetic acid salt (1:2)] reads above 7.00; that for `C[C@@H](N)CNS(=O)(=O)N1C[C@H](CCCB(O)O)[C@](N)(C(=O)O)C1` (racemic) [Example 17, (rac)trans-3-amino-1-(N-((R)-2-aminopropyl)sulfamoyl)-4-(3-boronopropyl)pyrrolidine-3-carboxylic acid (diastereomers), 2,2,2-trifluoroacetic acid salt (1:2) (Diasteromers)], above 7.00. On to `NC1(CNS(=O)(=O)N2C[C@H](CCCB(O)O)[C@](N)(C(=O)O)C2)CC1` (racemic) [Example 19, (rac)-(trans)3-amino-1-(N-((1-aminocyclopropyl)methyl)sulfamoyl)-4-(3-boronopropyl)pyrrolidine-3-carboxylic acid, 2,2,2-trifluoroacetic acid salt (1:2)], for which the pIC50 is 6.00 to 7.00.

With `N[C@@H]1CCCCC1NS(=O)(=O)N1C[C@H](CCCB(O)O)[C@](N)(C(=O)O)C1` (mixture of isomers) [Example 20, (rac)trans-3-amino-1-(N-((rac)cis-2-aminocyclohexyl)sulfamoyl)-4-(3-boronopropyl)pyrrolidine-3-carboxylic acid (diastereomers), 2,2,2-trifluoroacetic acid salt (1:2)], the pIC50 is below 5.00. The result for `NCCCNS(=O)(=O)N1C[C@H](CCCB(O)O)[C@](N)(C(=O)O)C1` (racemic) [Example 21, (rac)-trans-3-amino-1-(N-(3-aminopropyl)sulfamoyl)-4-(3-boronopropyl)pyrrolidine-3-carboxylic acid (diastereomers), 2,2,2-trifluoroacetic acid salt (1:2)] reads 6.00 to 7.00; that for `N[C@H]1CCCCC1NS(=O)(=O)N1C[C@H](CCCB(O)O)[C@](N)(C(=O)O)C1` (mixture of isomers) [Example 22, (rac)-trans-3-amino-1-(N-(trans-2-aminocyclohexyl)sulfamoyl)-4-(3-boronopropyl)pyrrolidine-3-carboxylic acid (diastereomers), 2,2,2-trifluoroacetic acid salt (1:2)], 6.00 to 7.00. Take `N[C@H]1COCC1NS(=O)(=O)N1C[C@H](CCCB(O)O)[C@](N)(C(=O)O)C1` (mixture of isomers) [Example 23, (rac)-trans-3-amino-1-(N-((rac)cis-4-aminotetrahydrofuran-3-yl)sulfamoyl)-4-(3-boronopropyl)pyrrolidine-3-carboxylic acid (diastereomers), 2,2,2-trifluoroacetic acid salt (1:2)]: the pIC50 was 6.00 to 7.00.

On to `NC1CC(NS(=O)(=O)N2C[C@H](CCCB(O)O)[C@](N)(C(=O)O)C2)C1` (mixture of isomers) [Example 24, (rac)-trans-3-amino-1-(N-((rac)trans-3-aminocyclobutyl)sulfamoyl)-4-(3-boronopropyl)pyrrolidine-3-carboxylic acid compound with 2,2,2-trifluoroacetic acid (1:2)], for which the pIC50 is above 7.00. The result for `NC1CN(S(=O)(=O)N2C[C@H](CCCB(O)O)[C@](N)(C(=O)O)C2)C1` (racemic) [Example 33, (rac)-trans-3-amino-1-((3-aminoazetidin-1-yl)sulfonyl)-4-(3-boronopropyl)pyrrolidine-3-carboxylic acid, 2,2,2-trifluoroacetic acid salt (1:2)] reads 6.00 to 7.00; that for `N[C@@]1(C(=O)O)CN(S(=O)(=O)NC2CNC2)C[C@@H]1CCCB(O)O` (racemic) [Example 34, (rac)-trans-3-amino-1-(N-(azetidin-3-yl)sulfamoyl)-4-(3-boronopropyl)pyrrolidine-3-carboxylic acid, 2,2,2-trifluoroacetic acid salt (1:2)], above 7.00.

The pIC50 is the IC50 on a negative log10 scale, so that one unit is a factor of ten.

The values are drawn from patent US20220251116A1, “ALKYLBORONIC ACIDS AS ARGINASE INHIBITORS” (Guangdong Newopp Biopharmaceuticals Co., Ltd., priority 2019, published 2022).
